Reference: US20110263487A1, “Plant Production and Delivery System for Recombinant Proteins as Protein-Flour or Protein-Oil Compositions” (University of Georgia Research Foundation, Inc., priority 2007, published 2011)

Tested on: Fall Army Worm, Spodoptera frupperda
Experiment: Larvae feeding on transgenic Arabidopsis plants, mortality
Type: in vivo
Conditions: relative to control plants
Method: The mortality of moth larvae species was assayed examining the feeding of the three genotypes of transgenic plants relative to each other and relative to wild-type plant controls. An initial result indicates extremely high expression levels of the B.t. and B.t.B expressed from the ACTIN 2 A2pt cassette can be achieved. […] Cry1Ac (plant line Cry1#31, Table 2). The mortality of Fall Army Worm, Spodoptera frupperda, which is 100-fold less sensitive to Cry1Ac, was assayed feeding on these plants.

## B.t. Cry1Ac: Bacillus thuringiensis toxin Cry1Ac expressed in transgenic Arabidopsis from A2pt::Cry1Ac (SEQ ID NO: 1)
  killing of the Fall Army Worm feeding on transgenic plants: weak killing activity
